# Assay results: patent US6831080B2, “Cinnamide derivatives as KCNQ potassium channel modulators” (Bristol-Myers Squibb Company, priority 2001, dated 2004)
# Where a name gives a salt, the structure may show the parent alone.
# Legend:
# [1] = system: chlordiazepoxide + amphetamine induced hyperactivity, Sprague Dawley rats; assay: Mania/bipolar model: chlordiazepoxide + d-amphetamine induced hyperactivity, locomotor activity; type: in vivo, rat
# Description: Subjects: Female Sprague Dawley rats (Hilltop Lab Animals, Scottdale, Pa.), weighing 150-200 g at the beginning of the experiment, were used in the experiment described in this example. Animals were individually housed in standard shoebox cages and maintained on a 12:12 h light-dark cycle (lights on at 0600). All animals were allowed food and water ad libitum throughout the experimental procedure. Prior to arrival to the testing facility, the rats were anesthetized with vaporized Isoflurane and catheters were surgically implanted into the jugular vein. The catheters were made of silastic medical grade tubing (15 cm long, 0.02″ internal diameter, 0.037″ external diameter), fastened with sutures to muscle near the jugular vein and at the nape of the neck, then sealed with smooth pieces of monofilament that were secured at the nape of the neck.
# Lithium chloride (LiCl), chlordiazepoxide hydrochloride (CDP) and d-amphetamine sulfate (Amph) were obtained from Sigma Chemical Company (St. Louis, Mo.). LiCl was dissolved in a vehicle of isotonic saline and injected intraperitoneally (i.p.) at a dose of 2 mEq/kg. CDP and Amph were dissolved in a vehicle of sterile water (Phoenix Scientific, Inc., St. Joseph, Mo.) and injected subcutaneously (s.c.) at a dose of 12.5 mg/kg and 1.18 mg/kg, respectively. Combination treatment of CDP and Amph represented the s.c. injection of a 1:1 mixture of both compounds at the above referenced doses. Compound of Example 1 was dissolved in dimethylsulfoxide (DMSO) and brought to volume with propylene glycol (PG) such that the final vehicle represented a 4% DMSO/96% PG solution. […]
# Thirty minutes after final s.c. dosing with either CDP+Amph, Amph alone or vehicle, rats were placed in locomotor activity testing apparatus. […] Data were analyzed using a priori planned analyses of variance where an effect was considered significant if p<0.05.
# [2] = system: nerve injury-induced tactile allodynia (L5/L6 ligation), Sprague Dawley rats; assay: Chung model of neuropathic pain (Chung surgery and von Frey test); type: in vivo, rat; details: 3 mg/kg, i.v., von Frey thresholds over 90 min
# Description: To test agents for activity against peripheral mononeuropathy nerve injury-induced tactile allodynia, male Sprague Dawley rats (wt. 120-160 g) were surgically prepared with unilateral tight ligation of spinal nerves L5 and L6 following the method of Kim and Chung (Kim S. H., Chung J. M. (1992) Pain, September;50(3):355-63). After 3-4 weeks recovery, paw withdrawal to light touch was assessed as described by Chaplan et al. (Chaplan S. R., et al., (1994) J. Neurosci Methods, July;53(1):55-63). In brief, rats are placed in a plastic cage with a wire mesh bottom and allowed to acclimate for 15-30 minutes, until cage exploration and grooming stops. The plantar surface of each hind paw is touched with a series of von Frey hairs with varying stiffness requiring a known force to buckle to determine the nociceptive threshold. Adult male Sprague Dawley rats (avg. wt. 340 g) were tested in the present study. After acclimation, baseline von Frey thresholds were assessed for the injured hindpaw at −15 min. All test compounds were delivered at 0 min by the intravenous (i.v.) route in a volume of 0.5-2 ml/kg. The vehicle for test compounds was 100% PEG-400. For gabapentin the vehicle was deionized H2O. Animals were tested in one of the following 4 treatment conditions: (a) PEG400, (b) gabapentin (Neurontin) 100 mg/kg, (c) test compounds 3 mg/kg and (d) test compounds 10 mg/kg. Following drug administration, von Frey thresholds are measured at 15, 30, 60 and 90 min. Data were analyzed by a 2-way repeated measures analysis of variance followed by Dunnett's test (p<0.05). Experimenters were kept blind to the treatment condition of rats they tested.
# Reversal of neuropathic pain behavior may be expressed as a percentage (0-100%) of the maximum possible effect, over and above the vehicle effects. Specifically, drug effects can be described in terms Δ% MPE according to the following equation: [formula]
# AUCdrug=area under the curve for von Frey thresholds of the drug-treated group;
# AUCvehicle=area under the curve for von Frey thresholds in the vehicle group;
# Time=duration of post-drug testing period (90 min); and
# Max=maximum von Frey threshold (15 g).
# For example, a compound which immediately reversed neuropathic pain behavior to normal levels, such that animals only responded to the highest von Frey filament (15 g), and maintained normal levels through out the post-drug testing period (90 min) would be calculated as Δ% MPE=100%.
# [3] = system: cortical spreading depression (KCl application), Long-Evans rats; assay: In vivo electrophysiology: number of cortical spreading depressions produced by KCl application; details: 1 mg/kg, i.v., 15 min prior to KCl; rat
# Source text: Male Long-Evans rats (300-450 g) were used in the present studies (Harlan). Rats were anesthetized with urethane anesthesia (1.2 g/kg i.p.) and placed in a stereotaxic frame. Under anesthesia a Silastic catheter was placed in the jugular vein of the rats. The skull was exposed using a scalpel. A small hole (approximately 2 mm by 3 mm) was drilled in to the skull rostral to the lambdoid suture using a microdrill and steel burr. The dura was disrupted and a drop of mineral oil was placed in this hole to prevent dehydration of the underlying cortex. Ultimately this hole was used for the application of crystalline KCl (described below).
# Two additional holes were place in the skull unilaterally at 4 and 8 mm rostral to the application hole. Silver wire electrodes were placed in these latter holes and secured to the skull using acrylic cement. A similar silver wire electrode was sutured to the nuchal muscle to serve as a reference electrode. Electrical DC recordings were obtained using a standard differential amplifier (Warner, DP-304) and commercially available data acquisition equipment (Cambridge Electronic Design, 1401 A-D converter and Spike2 software).
# All experimental procedures were conducted while the rats were maintained under anesthesia. Rats were injected with test compound, valproic acid or vehicle (100% PEG-400) 15 min prior to the application of crystalline KCl to the application site described above. All injections were given via the jugular vein at a volume of ≦0.5 ml/kg. Only one treatment was tested per animal. The effect of valproic acid was also determined in this study due to the fact that Depakote™ (divalproex sodium) is one of only three drugs currently indicated for the prophylatic treatment of migraine headache. Valproic acid (30-200 mg/kg i.v.) was obtained from Sigma Chemical Company and was dissolved in a vehicle of isotonic saline.
# KCl was applied to the application site for 10 min and was then removed using a saline soaked cotton swab. Mineral oil was subsequently reapplied to the application site. Typically, this application produced a long-lasting series of spreading depressions. The number of spreading depressions produced by this KCl application was the primary measure used to access the effectiveness of compounds in this assay.
# Data were analyzed using analyses of variance followed by the Dunnett post-hoc test for pairwise comparisons, when appropriate. A difference was considered significant when p≦0.05.
# The effect of representative compounds of Formula I on spreading depression is expressed as the percent reduction from vehicle control and is listed in Table 3.
# [4] = system: streptozoticin-induced tactile allodynia, Sprague Dawley rats; assay: Diabetic model of neuropathic pain (streptozoticin and von Frey test); type: in vivo, rat; details: 10 mg/kg, i.v.; von Frey thresholds over 90 min; STZ diabetic model
# Description: To test agents for activity against systemic polyneuropathy nerve injury-induced tactile allodynia, animals were treated with streptozoticin (STZ) to create a diabetic condition by selective cytotoxic action upon pancreatic β-islet cells that produce insulin following the method of Courteix, et al. (Courteix C., et al., (1993) Pain, April;53(1):81-8). In brief, male Sprague Dawley rats (wt. 200-275 g) received an injection of STZ (75 mg/kg, i.p.) and diabetes was confirmed three weeks after STZ injection by measurement of tail vein blood glucose levels. After 3-4 weeks, paw withdrawal to light touch was assessed as described by Chaplan et al. (Chaplan S. R., et al., (1994) J Neurosci Methods, July;53(1):55-63). In brief, rats are placed in a plastic cage with a wire mesh bottom and allowed to acclimate for 15-30 minutes, until cage exploration and grooming stops. The plantar surface of each hind paw is touched with a series of von Frey hairs with varying stiffness requiring a known force to buckle to determine the nociceptive threshold. Adult male Sprague Dawley rats (avg. wt. 300 g) were tested in the present study. After acclimation, baseline von Frey thresholds were assessed for the injured hindpaw at -15 min. All test compounds were delivered at 0 min by the intravenous (i.v.) route in a volume of 0.5-2 ml/kg. […] Animals were tested in one of the following 4 treatment conditions: […] Following drug administration, von Frey thresholds are measured at 15, 30, 60 and 90 min. Data were analyzed by a 2-way repeated measures analysis of variance followed by Dunnett's test (p<0.05). Experimenters were kept blind to the treatment condition of rats they tested. […] Specifically, drug effects can be described in terms Δ% MPE according to the following equation: {[…] under the curve for von Frey thresholds of the drug-treated group; AUCvehicle=area under the curve for von Frey thresholds in the vehicle group; Time=duration of post-drug testing period (90 min); and Max=maximum von Frey threshold (15 g).
# [5] = target: T1, mKCNQ2 channels (Mus musculus, UniProt Q9Z351); assay: Whole-cell patch-clamp, HEK 293 stable cell line expressing mKCNQ2 channels; type: cell-based; details: HEK 293 mKCNQ2, Hill fit
# T1 construct: expressed in transfected cells
# T1 sequence (Q9Z351 whole entry): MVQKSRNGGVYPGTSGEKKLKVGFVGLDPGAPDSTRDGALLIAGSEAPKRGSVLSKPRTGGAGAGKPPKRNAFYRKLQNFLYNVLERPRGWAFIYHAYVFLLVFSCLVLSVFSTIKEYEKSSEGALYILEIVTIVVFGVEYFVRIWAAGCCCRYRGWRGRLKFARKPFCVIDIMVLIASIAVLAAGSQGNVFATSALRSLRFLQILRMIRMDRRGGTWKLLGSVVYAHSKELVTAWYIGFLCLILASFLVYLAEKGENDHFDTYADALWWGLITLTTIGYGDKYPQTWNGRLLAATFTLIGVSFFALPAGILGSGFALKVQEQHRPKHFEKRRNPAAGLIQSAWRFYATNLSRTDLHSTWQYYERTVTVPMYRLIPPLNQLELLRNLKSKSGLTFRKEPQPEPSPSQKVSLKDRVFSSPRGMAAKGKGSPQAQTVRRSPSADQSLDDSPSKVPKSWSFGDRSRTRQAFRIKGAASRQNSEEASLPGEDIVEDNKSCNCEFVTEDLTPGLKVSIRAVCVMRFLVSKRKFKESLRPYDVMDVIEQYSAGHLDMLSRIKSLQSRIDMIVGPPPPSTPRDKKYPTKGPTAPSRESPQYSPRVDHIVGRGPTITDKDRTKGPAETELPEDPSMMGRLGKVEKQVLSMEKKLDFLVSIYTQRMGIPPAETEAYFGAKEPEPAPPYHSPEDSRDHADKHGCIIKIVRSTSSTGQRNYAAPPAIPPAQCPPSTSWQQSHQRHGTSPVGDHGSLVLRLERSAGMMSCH
# Description: Whole-cell patch-clamp recordings were made from an HEK 293 stable cell line expressing mKCNQ2 channels, maintained in culture for 1-2 days. Patch pipettes had initial resistances of 2.5-4 MΩ. Currents were recorded with an EPC-9 amplifier (HEKA, Lambrecht, Germany) controlled with software (Pulse, HEKA) run on a standard lab PC. Series resistance compensation was used during current recording, and set at 80%. The series resistance (R) and cell capacitance (C) were determined electronically by subtracting the capacitive currents at the onset and offset of a 5 mV voltage step. The cancellation of whole-cell capacitance transients was virtually complete in all cells. Analog current signals were low-pass filtered at 2.9 kHz using a four-pole Bessel filter −3 dB) and stored on a local network server computer at a sampling rate of […]. All recordings were performed at room temperature (20-22° C.). The pipette solution contained (mM): KCl, 150; CaCl2, 2.5; EGTA, 5; MgCl2, 1; HEPES, 10; pH to 7.3 with KOH, and Osmolality of 290-300 mOsm. The extracellular solution contained (mM): NaCl, 140; KCl, 2.5; CaCl2, 2.5; MgCl2, 1; glucose, 10; HEPES, 10; pH to 7.3 with NaOH, and Osmolality of 305-310 mOsm
# Concentration response data were generated by measuring the difference in the steady-state amplitude of current in the presence of compound at the end of a 600 ms voltage-clamp step from a holding potential of −80 mV. The concentration-response data were fitted with Hill-type equations: […]
# where I is the steady-state current at a given concentration of agonist [A]; and Imax, EC50 and nH are parameters estimated from the curve fit. In some cases the concentration-response data were fitted with equations consisting of the sum of two Hill-type components. Current-voltage (I/V) relationships for agonist-evoked currents were obtained by performing 600 ms voltage steps (−110 mV to +40 mV) in the absence and presence of agonist.
compound,measurement,setting,value
C[C@H](NC(=O)/C=C/c1ccc(F)cc1)c1ccc2ccccc2c1 [Compound of Example 1],Horizontal Activity Counts,"[1]; 5 mg/kg i.v. 45 minutes pre-test, then chlordiazepoxide + d-amphetamine, first 10 minutes of testing","7,859.2 + 661.21 counts"
same,Effect on augmentation of locomotor scores produced by the combination treatment,"[1]; 5 mg/kg i.v. 45 minutes pre-test, F(1,16)=10.4, p=0.005",significantly prevented
"C[C@H](NC(=O)/C=C/c1cc(F)ccc1F)c1cccc(N2CCOCC2)c1 [Example 90, (S)-3-(2,5-Difluoro-phen-yl)-N-[1-(3-morpho-lin-4-yl-phenyl)-eth-yl]-acrylamide]",AUC (Δ% MPE),[2],"13 (3 mg/kg, i.v.) Δ% MPE"
same,"% Reduction (number of spreading depressions, from vehicle control)",[3],"37 (1 mg/kg, i.v.) %"
same,AUC (Δ% MPE),[4],"56 (10 mg/kg, i.v.) Δ% MPE"
same,EC50,[5]; @ −40 mV,1.2 µM
same,Emax,"[5]; HEK293, read-out: Imax (%)",523%
"C[C@H](N)Cc1ccccc1 [d-amphetamine, d-amphetamine sulfate, reference compound]",Horizontal Activity Counts,"[1]; rat, in vivo","8,772.3 + 426.02 counts"
